Assay results as given in patent publication US12522623B2, “Small molecule STAT protein degraders” (THE REGENTS OF THE UNIVERSITY OF MICHIGAN, priority 2020, dated 2026).

Legend:
Type in all cases: cell-based
STAT1 = molecular target: T1, STAT1 (Homo sapiens, UniProt P42224); test: Fluorescent immunoblotting of STAT1 protein in MOLM-16 cells (estimated DC50); details: MOLM-16, 4 h
T1 construct: endogenous in cells; host or cells: MOLM-16 (acute leukemia cells)
T1 sequence (P42224 1-750): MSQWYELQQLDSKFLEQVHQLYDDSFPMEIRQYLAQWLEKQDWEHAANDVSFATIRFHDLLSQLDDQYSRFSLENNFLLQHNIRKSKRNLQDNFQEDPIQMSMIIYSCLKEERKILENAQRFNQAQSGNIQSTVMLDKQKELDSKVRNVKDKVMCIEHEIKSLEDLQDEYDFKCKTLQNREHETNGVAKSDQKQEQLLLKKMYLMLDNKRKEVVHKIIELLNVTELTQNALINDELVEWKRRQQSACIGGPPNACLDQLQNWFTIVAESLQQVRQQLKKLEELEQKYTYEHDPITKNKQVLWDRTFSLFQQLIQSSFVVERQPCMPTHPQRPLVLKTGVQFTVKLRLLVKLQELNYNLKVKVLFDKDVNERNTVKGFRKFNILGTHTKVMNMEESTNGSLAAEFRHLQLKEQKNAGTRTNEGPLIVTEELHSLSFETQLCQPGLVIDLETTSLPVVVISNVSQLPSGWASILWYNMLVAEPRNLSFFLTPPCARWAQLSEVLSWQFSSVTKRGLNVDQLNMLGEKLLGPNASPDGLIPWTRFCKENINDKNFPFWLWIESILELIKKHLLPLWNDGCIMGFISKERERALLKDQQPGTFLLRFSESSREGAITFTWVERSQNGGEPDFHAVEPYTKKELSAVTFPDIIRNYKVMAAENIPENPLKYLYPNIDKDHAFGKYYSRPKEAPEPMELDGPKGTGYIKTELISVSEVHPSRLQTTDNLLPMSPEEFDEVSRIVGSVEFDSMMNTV
Procedure: (§1) In vitro cultured cells or xenograft tumors were lysed 1×Cell Lysis Buffer (Cell Signaling Technology, #9803), resolved by SDS-PAGE NuPAGE gel (Thermo Fisher Scientific), and transferred to a PVDF membrane (Bio Rad). For chemiluminescence immunoblotting, membranes were blocked for 1 h using 5% Blotting-Grade Blocker (#1706404, Bio Rad) in 1×Tris-buffered saline with Tween 20 (TBST, Pierce). Antibodies used were: rabbit mAbs for STAT3 (Cell Signaling Technology, #4368, #12640) and p-STAT3 (Y705) (Cell Signaling Technology, #9245, #52075). HRP conjugated goat anti-rabbit IgG (H+L) (#A27036) secondary antibodies was from Thermo Fisher Scientific. GAPDH (Santa Cruz Technology, sc-47724HRP) and actin (Santa Cruz Technology, sc-8432HRP, sc-47778HRP) were loading controls. For fluorescent immunoblotting, membranes were blocked using Odyssey TBS Blocker Buffer (LI-COR). IRDye 680RD and 800CW Dye-labeled secondary antibodies (LI-COR) were used. The washed membranes were scanned using Odyssey CLx imager (LI-COR). The intensity of Western blot signaling was quantitated using the Odyssey software or Image Studio V5.2 (LI-COR).

STAT3 = molecular target: T2, STAT3 (Homo sapiens, UniProt P40763); test: Fluorescent immunoblotting of STAT3 protein in MOLM-16 cells (estimated DC50); details: MOLM-16, 4 h
T2 construct: endogenous in cells; host or cells: MOLM-16 (acute leukemia cells)
T2 sequence (P40763 whole entry): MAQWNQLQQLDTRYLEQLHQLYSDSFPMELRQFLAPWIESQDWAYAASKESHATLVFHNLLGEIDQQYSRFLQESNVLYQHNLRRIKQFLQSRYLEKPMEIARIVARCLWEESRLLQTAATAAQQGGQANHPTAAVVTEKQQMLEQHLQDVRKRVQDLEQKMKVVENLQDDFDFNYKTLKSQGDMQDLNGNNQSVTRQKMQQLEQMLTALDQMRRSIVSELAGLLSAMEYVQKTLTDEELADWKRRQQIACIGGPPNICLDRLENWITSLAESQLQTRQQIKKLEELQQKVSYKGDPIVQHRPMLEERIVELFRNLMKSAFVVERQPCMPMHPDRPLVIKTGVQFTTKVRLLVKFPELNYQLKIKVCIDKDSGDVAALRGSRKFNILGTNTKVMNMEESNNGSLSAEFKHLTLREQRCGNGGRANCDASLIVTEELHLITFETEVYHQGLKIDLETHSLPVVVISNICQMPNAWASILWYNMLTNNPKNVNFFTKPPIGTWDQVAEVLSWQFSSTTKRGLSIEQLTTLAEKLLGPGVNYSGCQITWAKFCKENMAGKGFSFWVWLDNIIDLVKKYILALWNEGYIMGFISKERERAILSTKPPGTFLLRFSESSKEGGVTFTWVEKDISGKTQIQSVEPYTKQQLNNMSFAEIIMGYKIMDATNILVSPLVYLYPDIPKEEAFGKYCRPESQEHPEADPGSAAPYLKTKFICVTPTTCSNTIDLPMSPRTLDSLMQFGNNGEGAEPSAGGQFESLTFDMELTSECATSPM
Procedure: as §1

MOLM-16 cells = test: Cell growth inhibition, 4-day proliferation assay (CellTiter-Glo); details: MOLM16, 96 h; MOLM-16, 4 days
Procedure: The effect of representative Compounds of the Disclosure on cell viability was determined in a 4-day proliferation assay. Cells were maintained in the appropriate culture medium at 37° C. and an atmosphere of 5% CO2. All the cell lines were used within three months of thawing fresh vials. Cells were seeded in 384-well white plates (Corning Costar) at a density of 2,000 cells/well in 25 μl of culture medium. Compounds were serially diluted in the appropriate medium, and 25 μl of the diluted compounds were added to the cells. After the addition of compounds, the cells were incubated at 37° C. in an atmosphere of 5% CO2 for 4 days. Cell viability was determined using the CellTiter-Glo® Luminescent Cell Viability Assay Kit (Promega, Madison, WI) according to the manufacturers' instructions. Essentially, 50 μl of CellTiter-Glo® Reagent was added to each well, and then the plates were incubated at room temperature for 20 minutes. The luminescent signal was measured using a Tecan multimode microplate reader (Tecan, Morrisville, NC). The readings were normalized to the DMSO-treated cells and the IC50 was calculated by nonlinear regression (four parameters sigmoid fitted with variable slope, least squares fit, and no constraint) analysis using the GraphPad Prism software.

Molecule `COC(=O)N1CC[C@H]2CC[C@@H](C(=O)N[C@@H](CCCN)C(=O)N[C@@H](Cc3ccc(C(C)(C)C)cc3)C(=O)N3CCC(CCC#Cc4cccc5c4CN(C4CCC(=O)NC4=O)C5=O)CC3)N2C(=O)[C@@H](NC(=O)c2cc3cc(C(F)(F)P(=O)(O)O)ccc3s2)C1` (stereo partly drawn) [Cpd. No. 1, ((2-(((5S,8S,10aR)-8-(((2S)-5-amino-1-(((2S)-3-(4-(tert-butyl)phenyl)-1-(4-(4-(2-(2,6-dioxopiperidin-3-yl)-1-oxoisoindolin-4-yl)but-3-yn-1-yl)piperidin-1-yl)-1-oxopropan-2-yl)amino)-1-oxopentan-2-yl)carbamoyl)-3-(methoxycarbonyl)-6-oxodecahydropyrrolo[1,2-a][1,5]diazocin-5-yl)carbamoyl)benzo[b]thiophen-5-yl)difluoromethyl)phosphonic acid] has a DC50 (STAT1) greater than 1 µM and a DC50 (STAT3) of 1 µM.

`NC(=O)CC[C@H](NC(=O)[C@@H]1CC[C@@H]2CCN(C(=O)CCCCCC#Cc3cccc4c3CN(C3CCC(=O)NC3=O)C4=O)C[C@H](NC(=O)c3cc4cc(C(F)(F)P(=O)(O)O)ccc4s3)C(=O)N21)c1ncc(-c2ccccc2)s1` (stereo partly drawn) [Cpd. No. 2, ((2-(((5S,8S,10aR)-8-(((S)-4-amino-4-oxo-1-(5-phenylthiazol-2-yl)butyl)carbamoyl)-3-(8-(2-(2,6-dioxopiperidin-3-yl)-1-oxoisoindolin-4-yl)oct-7-ynoyl)-6-oxodecahydropyrrolo[1,2-a][1,5]diazocin-5-yl)carbamoyl)benzo[b]thiophen-5-yl)difluoromethyl)phosphonic acid] was tested, and the DC50 (STAT1) was greater than 1 µM, the IC50 (MOLM-16 cells) was 0.049 µM and the DC50 (STAT3) was 0.1 µM.

`NC(=O)CC[C@H](NC(=O)[C@@H]1CC[C@@H]2CCN(C(=O)CCCCCC#Cc3cccc4c3CN(C3CCC(=O)NC3=O)C4=O)C[C@H](NC(=O)c3cc4cc(C(F)(F)P(=O)(O)O)ccc4s3)C(=O)N21)c1nc(-c2ccc(F)c(Cl)c2)cs1` (stereo partly drawn) [Cpd. No. 14, ((2-(((5S,8S,10aR)-8-(((S)-4-amino-1-(4-(3-chloro-4-fluorophenyl)thiazol-2-yl)-4-oxobutyl)carbamoyl)-3-(8-(2-(2,6-dioxopiperidin-3-yl)-1-oxoisoindolin-4-yl)oct-7-ynoyl)-6-oxodecahydropyrrolo[1,2-a][1,5]diazocin-5-yl)carbamoyl)benzo[b]thiophen-5-yl)difluoromethyl)phosphonic acid] showed an IC50 (MOLM-16 cells) of 0.037 µM and a DC50 (STAT3) of 0.05 µM.

With `NC(=O)CC[C@H](NC(=O)[C@@H]1CC[C@@H]2CCN(C(=O)CCCCCC#Cc3cccc4c3CN(C3CCC(=O)NC3=O)C4=O)C[C@H](NC(=O)c3cc4cc(C(F)(F)P(=O)(O)O)ccc4s3)C(=O)N21)c1ncc(-c2ccccc2F)s1` (stereo partly drawn) [Cpd. No. 16, ((2-(((5S,8S,10aR)-8-(((S)-4-amino-1-(5-(2-fluorophenyl)thiazol-2-yl)-4-oxobutyl)carbamoyl)-3-(8-(2-(2,6-dioxopiperidin-3-yl)-1-oxoisoindolin-4-yl)oct-7-ynoyl)-6-oxodecahydropyrrolo[1,2-a][1,5]diazocin-5-yl)carbamoyl)benzo[b]thiophen-5-yl)difluoromethyl)phosphonic acid] the IC50 (MOLM-16 cells) was 0.068 µM and the DC50 (STAT3) was 0.05 µM.

For `CCN1CC[C@H]2CC[C@@H](C(=O)N[C@@H](CCS(C)(=O)=O)C(=O)N[C@@H](Cc3ccc(C(C)(C)C)cc3)C(=O)N3CCC(CCC#Cc4cccc5c4CN(C4CCC(=O)NC4=O)C5=O)CC3)N2C(=O)[C@@H](NC(=O)c2cc3cc(C(F)(F)P(=O)(O)O)ccc3s2)C1` (stereo partly drawn) [Cpd. No. 18, ((2-(((5S,8S,10aR)-8-(((2S)-1-(((2S)-3-(4-(tert-butyl)phenyl)-1-(4-(4-(2-(2,6-dioxopiperidin-3-yl)-1-oxoisoindolin-4-yl)but-3-yn-1-yl)piperidin-1-yl)-1-oxopropan-2-yl)amino)-4-(methylsulfonyl)-1-oxobutan-2-yl)carbamoyl)-3-ethyl-6-oxodecahydropyrrolo[1,2-a][1,5]diazocin-5-yl)carbamoyl)benzo[b]thiophen-5-yl)difluoromethyl)phosphonic acid], the DC50 (STAT1) was greater than 1 µM and the DC50 (STAT3) was less than 0.25 µM.

`CCN1CC[C@H]2CC[C@@H](C(=O)N[C@@H](CCn3ccnc3)C(=O)N[C@@H](Cc3ccc(C(C)(C)C)cc3)C(=O)N3CCC(CCC#Cc4cccc5c4CN(C4CCC(=O)NC4=O)C5=O)CC3)N2C(=O)[C@@H](NC(=O)c2cc3cc(C(F)(F)P(=O)(O)O)ccc3s2)C1` (stereo partly shown) [Cpd. No. 19] was tested, and the DC50 (STAT1) was greater than 1 µM and the DC50 (STAT3) was 0.25 µM.

For `CCN1CC[C@H]2CC[C@@H](C(=O)N[C@@H](CCS(N)(=O)=O)C(=O)N[C@@H](Cc3ccc(C(C)(C)C)cc3)C(=O)N3CCC(CCC#Cc4cccc5c4CN(C4CCC(=O)NC4=O)C5=O)CC3)N2C(=O)[C@@H](NC(=O)c2cc3cc(C(F)(F)P(=O)(O)O)ccc3s2)C1` (stereo partly drawn) [Cpd. No. 20, ((2-(((5S,8S,10aR)-8-(((2S)-1-(((2S)-3-(4-(tert-butyl)phenyl)-1-(4-(4-(2-(2,6-dioxopiperidin-3-yl)-1-oxoisoindolin-4-yl)but-3-yn-1-yl)piperidin-1-yl)-1-oxopropan-2-yl)amino)-1-oxo-4-sulfamoylbutan-2-yl)carbamoyl)-3-ethyl-6-oxodecahydropyrrolo[1,2-a][1,5]diazocin-5-yl)carbamoyl)benzo[b]thiophen-5-yl)difluoromethyl)phosphonic acid], the DC50 (STAT1) was greater than 1 µM and the DC50 (STAT3) was less than 0.25 µM.

Molecule `CCN1CC[C@H]2CC[C@@H](C(=O)N[C@@H](CCn3ccnc3[N+](=O)[O-])C(=O)N[C@@H](Cc3ccc(C(C)(C)C)cc3)C(=O)N3CCC(CCC#Cc4cccc5c4CN(C4CCC(=O)NC4=O)C5=O)CC3)N2C(=O)[C@@H](NC(=O)c2cc3cc(C(F)(F)P(=O)(O)O)ccc3s2)C1` (stereo partly drawn) [Cpd. No. 21, ((2-(((5S,8S,10aR)-8-(((2S)-1-(((2S)-3-(4-(tert-butyl)phenyl)-1-(4-(4-(2-(2,6-dioxopiperidin-3-yl)-1-oxoisoindolin-4-yl)but-3-yn-1-yl)piperidin-1-yl)-1-oxopropan-2-yl)amino)-4-(2-nitro-1H-imidazol-1-yl)-1-oxobutan-2-yl)carbamoyl)-3-ethyl-6-oxodecahydropyrrolo[1,2-a][1,5]diazocin-5-yl)carbamoyl)benzo[b]thiophen-5-yl)difluoromethyl)phosphonic acid] has a DC50 (STAT1) greater than 1 µM and a DC50 (STAT3) greater than 1 µM.

With `CCN1CC[C@H]2CC[C@@H](C(=O)N[C@@H](CCn3ccnc3N)C(=O)N[C@@H](Cc3ccc(C(C)(C)C)cc3)C(=O)N3CCC(CCC#Cc4cccc5c4CN(C4CCC(=O)NC4=O)C5=O)CC3)N2C(=O)[C@@H](NC(=O)c2cc3cc(C(F)(F)P(=O)(O)O)ccc3s2)C1` (stereo partly drawn) [Cpd. No. 22, ((2-(((5S,8S,10aR)-8-(((2S)-4-(2-amino-1H-imidazol-1-yl)-1-(((2S)-3-(4-(tert-butyl)phenyl)-1-(4-(4-(2-(2,6-dioxopiperidin-3-yl)-1-oxoisoindolin-4-yl)but-3-yn-1-yl)piperidin-1-yl)-1-oxopropan-2-yl)amino)-1-oxobutan-2-yl)carbamoyl)-3-ethyl-6-oxodecahydropyrrolo[1,2-a][1,5]diazocin-5-yl)carbamoyl)benzo[b]thiophen-5-yl)difluoromethyl)phosphonic acid] the DC50 (STAT1) was greater than 1 µM and the DC50 (STAT3) was greater than 1 µM.
